Oligonucleotides are written 5' to 3', each unit as a sugar letter and its base; * is a phosphorothioate linkage, no mark a phosphodiester; rarer units and linkages stand in square brackets, end groups in braces. Plain capitals give the bases only. d = 2'-deoxy (DNA); r = 2'-OH (RNA)
Note: test concentration or dose not given here.

This data set has as its target MRFAP1. Briefly: reporter assay of Huesken 2005. The settings on record: siRNA.
Consider “sense rCrCrCrUrGrUrGrArCrArCrUrGrArGrArCrUrUdTdT / antisense rArArGrUrCrUrCrArGrUrGrUrCrArCrArGrGrGdAdC”, for which the normalised inhibition (eCFP-eYFP dual reporter) turned out to be 65.9%.

Turning to “sense rUrArCrArCrGrGrCrUrArGrGrArCrUrGrArUrGdTdT / antisense rCrArUrCrArGrUrCrCrUrArGrCrCrGrUrGrUrAdAdG”, the normalised inhibition (eCFP-eYFP dual reporter) was 61.8%.

In the case of “sense rArArArArUrCrUrUrArCrArUrGrUrUrArArUrAdTdT / antisense rUrArUrUrArArCrArUrGrUrArArGrArUrUrUrUdGdT”, the normalised inhibition (eCFP-eYFP dual reporter) was found to be 76.5%.

For the substance “sense rUrArUrCrCrCrCrArUrArUrArUrUrUrGrArGrGdTdT / antisense rCrCrUrCrArArArUrArUrArUrGrGrGrGrArUrAdCdC”, the normalised inhibition (eCFP-eYFP dual reporter) is 48.6%.

With “sense rGrUrCrCrCrUrGrUrGrArCrArCrUrGrArGrArCdTdT / antisense rGrUrCrUrCrArGrUrGrUrCrArCrArGrGrGrArCdCdC”, the normalised inhibition (eCFP-eYFP dual reporter) stood at 43%.

Substance “sense rUrCrCrCrUrGrArArCrUrUrUrGrGrGrUrCrCrCdTdT / antisense rGrGrGrArCrCrCrArArArGrUrUrCrArGrGrGrAdGdC” yielded a normalised inhibition (eCFP-eYFP dual reporter) of 53.3%.

“sense rUrUrGrGrArArArArUrGrCrGrCrUrCrArCrArUdTdT / antisense rArUrGrUrGrArGrCrGrCrArUrUrUrUrCrCrArAdAdT” displayed a normalised inhibition (eCFP-eYFP dual reporter) of 38.7%.

Turning to “sense rGrUrArGrUrCrArArGrCrUrArUrArArArUrGrUdTdT / antisense rArCrArUrUrUrArUrArGrCrUrUrGrArCrUrArCdAdT”, the normalised inhibition (eCFP-eYFP dual reporter) came to 88.3%.

For the substance “sense rGrCrArArArGrCrArGrCrGrGrArGrArUrGrCrGdTdT / antisense rCrGrCrArUrCrUrCrCrGrCrUrGrCrUrUrUrGrCdTdT”, the normalised inhibition (eCFP-eYFP dual reporter) worked out at 74.8%.

“sense rCrUrGrCrCrCrGrUrCrArUrCrCrArCrGrArGrAdTdT / antisense rUrCrUrCrGrUrGrGrArUrGrArCrGrGrGrCrArGdCdA” had a normalised inhibition (eCFP-eYFP dual reporter) of 70.8%.

With “sense rUrCrCrArGrArUrCrArArGrArCrGrCrArGrGrUdTdT / antisense rArCrCrUrGrCrGrUrCrUrUrGrArUrCrUrGrGrAdTdC”, the normalised inhibition (eCFP-eYFP dual reporter) was found to be 54.6%.

In the case of “sense rArArCrCrUrGrCrCrUrGrArUrGrArGrUrUrUrGdTdT / antisense rCrArArArCrUrCrArUrCrArGrGrCrArGrGrUrUdAdT”, the normalised inhibition (eCFP-eYFP dual reporter) is 52%.

With “sense rGrGrUrCrArArArArCrCrCrUrUrArCrCrArUrGdTdT / antisense rCrArUrGrGrUrArArGrGrGrUrUrUrUrGrArCrCdTdC”, the normalised inhibition (eCFP-eYFP dual reporter) is 84.5%.

For the substance “sense rCrArGrGrArGrArUrGrGrCrGrArArGrArUrGrGdTdT / antisense rCrCrArUrCrUrUrCrGrCrCrArUrCrUrCrCrUrGdCdG”, the normalised inhibition (eCFP-eYFP dual reporter) came out at 81.9%.

“sense rUrUrUrGrGrGrUrCrCrCrUrGrUrGrArCrArCrUdTdT / antisense rArGrUrGrUrCrArCrArGrGrGrArCrCrCrArArAdGdT”: the normalised inhibition (eCFP-eYFP dual reporter) is 50.8%.

“sense rUrUrArCrCrArUrGrUrUrGrArArArArCrArArAdTdT / antisense rUrUrUrGrUrUrUrUrCrArArCrArUrGrGrUrArAdGdG” gave a normalised inhibition (eCFP-eYFP dual reporter) of 91.3%.

“sense rUrCrArCrCrGrCrCrUrCrUrGrArArArGrUrUrCdTdT / antisense rGrArArCrUrUrUrCrArGrArGrGrCrGrGrUrGrAdGdC” showed a normalised inhibition (eCFP-eYFP dual reporter) of 45.5%.

“sense rUrUrGrUrUrCrGrUrCrUrGrUrArCrArArGrUrUdTdT / antisense rArArCrUrUrGrUrArCrArGrArCrGrArArCrArAdGdA” gave a normalised inhibition (eCFP-eYFP dual reporter) of 55.5%.

In turn, “sense rArArGrArUrGrGrCrCrGrArGrArUrGrCrUrGrGdTdT / antisense rCrCrArGrCrArUrCrUrCrGrGrCrCrArUrCrUrUdCdG” showed a normalised inhibition (eCFP-eYFP dual reporter) of 33.1%.
